Data from the kinase profiling compilation of Christmann-Franck et al. (2016).

Experiments:
Assay in all cases: radiometric filter-binding kinase assay, Kinase HotSpot
Conditions in all cases: compound 0.5 µM; ATP 10 µM
ABL2 (human) = ABL2 (human) (UniProt P42684)
ACVR1B (human) = ACVR1B (human) (UniProt P36896)
BLK (human) = BLK (human) (UniProt P51451)
CAMK2B (human) = CAMK2B (human) (UniProt Q13554)
CAMKK1 (human) = CAMKK1 (human) (UniProt Q8N5S9)
CAMKK2 (human) = CAMKK2 (human) (UniProt Q96RR4)
CDK1 CCNA2 (human) = CDK1 CCNA2 (human) (UniProt P06493+P20248)
CDK4 CCND1 (human) = CDK4 CCND1 (human) (UniProt P24385+P11802)
CDK5 CDK5R1 p35 (human) = CDK5 CDK5R1 p35 (human) (UniProt Q00535+Q15078)
CSF1R (human) = CSF1R (human) (UniProt P07333)
DYRK1B (human) = DYRK1B (human) (UniProt Q9Y463)
DYRK3 (human) = DYRK3 (human) (UniProt O43781)
EPHA2 (human) = EPHA2 (human) (UniProt P29317)
EPHA5 (human) = EPHA5 (human) (UniProt P54756)
FGFR2 (human) = FGFR2 (human) (UniProt P21802)
[1] = system: FLT4 (human), P35916 [Q890H]
GRK4 (human) = GRK4 (human) (UniProt P32298)
HIPK4 (human) = HIPK4 (human) (UniProt Q8NE63)
[2] = molecular target: JAK1 JH1 catalytic (human) (UniProt P23458)
KDR (human) = KDR (human) (UniProt P35968)
MAP3K14 (human) = MAP3K14 (human) (UniProt Q99558)
MAP4K5 (human) = MAP4K5 (human) (UniProt Q9Y4K4)
MELK (human) = MELK (human) (UniProt Q14680)
MET (human) = MET (human) (UniProt P08581)
NUAK2 (human) = NUAK2 (human) (UniProt Q9H093)
PDGFRA (human) = PDGFRA (human) (UniProt P16234)
PRKCB1 (human) = PRKCB1 (human) (UniProt P05771)
PRKCD (human) = PRKCD (human) (UniProt Q05655)
PRKCZ (human) = PRKCZ (human) (UniProt Q05513)
PRKD3 (human) = PRKD3 (human) (UniProt O94806)
ROCK1 (human) = ROCK1 (human) (UniProt Q13464)
RPS6KA1 KD1 KD2 (human) = RPS6KA1 KD1 KD2 (human) (UniProt Q15418)
SGK2 (human) = SGK2 (human) (UniProt Q9HBY8)
SIK2 (human) = SIK2 (human) (UniProt Q9H0K1)
SLK (human) = SLK (human) (UniProt Q9H2G2)
SRMS (human) = SRMS (human) (UniProt Q9H3Y6)
STK24 (human) = STK24 (human) (UniProt Q9Y6E0)
STK25 (human) = STK25 (human) (UniProt O00506)
STK3 (human) = STK3 (human) (UniProt Q13188)
TNK2 (human) = TNK2 (human) (UniProt Q07912)
[3] = molecular target: TYK2 JH1 catalytic (human) (UniProt P29597)
WNK2 (human) = WNK2 (human) (UniProt Q9Y3S1)

FLT4 (human), P35916 [Q890H], sequence (P35916 whole entry, looked up, stated change not applied): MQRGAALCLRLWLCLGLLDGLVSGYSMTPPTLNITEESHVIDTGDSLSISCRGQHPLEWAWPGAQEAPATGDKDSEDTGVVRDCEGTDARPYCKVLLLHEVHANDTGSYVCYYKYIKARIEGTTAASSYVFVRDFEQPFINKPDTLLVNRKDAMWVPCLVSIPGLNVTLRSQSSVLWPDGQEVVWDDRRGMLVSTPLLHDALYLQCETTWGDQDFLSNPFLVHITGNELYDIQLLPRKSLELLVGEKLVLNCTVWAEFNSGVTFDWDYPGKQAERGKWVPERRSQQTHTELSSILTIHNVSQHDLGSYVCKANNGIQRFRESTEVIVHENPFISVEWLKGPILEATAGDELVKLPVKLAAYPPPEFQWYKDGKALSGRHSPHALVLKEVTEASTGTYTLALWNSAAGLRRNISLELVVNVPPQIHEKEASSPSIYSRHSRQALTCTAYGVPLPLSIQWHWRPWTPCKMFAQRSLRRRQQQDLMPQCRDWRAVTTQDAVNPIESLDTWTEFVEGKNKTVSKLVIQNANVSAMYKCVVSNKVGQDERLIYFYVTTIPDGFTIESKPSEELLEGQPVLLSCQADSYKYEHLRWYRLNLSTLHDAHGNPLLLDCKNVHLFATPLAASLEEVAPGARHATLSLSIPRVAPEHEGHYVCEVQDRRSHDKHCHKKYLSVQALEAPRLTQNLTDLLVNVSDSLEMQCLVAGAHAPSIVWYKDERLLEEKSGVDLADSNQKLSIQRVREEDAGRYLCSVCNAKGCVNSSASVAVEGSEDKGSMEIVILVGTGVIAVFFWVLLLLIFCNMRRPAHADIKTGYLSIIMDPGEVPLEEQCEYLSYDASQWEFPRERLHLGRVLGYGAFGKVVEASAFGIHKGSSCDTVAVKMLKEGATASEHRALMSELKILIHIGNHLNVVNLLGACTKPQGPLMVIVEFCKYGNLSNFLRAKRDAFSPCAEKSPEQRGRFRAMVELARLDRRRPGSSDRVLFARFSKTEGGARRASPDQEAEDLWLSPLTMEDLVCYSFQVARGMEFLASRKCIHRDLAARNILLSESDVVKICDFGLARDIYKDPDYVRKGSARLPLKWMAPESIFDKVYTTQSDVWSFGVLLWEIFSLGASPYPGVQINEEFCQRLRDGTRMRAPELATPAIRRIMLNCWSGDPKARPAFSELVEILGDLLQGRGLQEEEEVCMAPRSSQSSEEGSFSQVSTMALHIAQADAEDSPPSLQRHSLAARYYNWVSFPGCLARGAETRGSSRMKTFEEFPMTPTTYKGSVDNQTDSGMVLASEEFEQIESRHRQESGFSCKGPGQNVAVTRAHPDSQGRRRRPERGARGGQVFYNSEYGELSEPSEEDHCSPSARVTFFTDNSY
STK24 (human), sequence (Q9Y6E0 whole entry, looked up): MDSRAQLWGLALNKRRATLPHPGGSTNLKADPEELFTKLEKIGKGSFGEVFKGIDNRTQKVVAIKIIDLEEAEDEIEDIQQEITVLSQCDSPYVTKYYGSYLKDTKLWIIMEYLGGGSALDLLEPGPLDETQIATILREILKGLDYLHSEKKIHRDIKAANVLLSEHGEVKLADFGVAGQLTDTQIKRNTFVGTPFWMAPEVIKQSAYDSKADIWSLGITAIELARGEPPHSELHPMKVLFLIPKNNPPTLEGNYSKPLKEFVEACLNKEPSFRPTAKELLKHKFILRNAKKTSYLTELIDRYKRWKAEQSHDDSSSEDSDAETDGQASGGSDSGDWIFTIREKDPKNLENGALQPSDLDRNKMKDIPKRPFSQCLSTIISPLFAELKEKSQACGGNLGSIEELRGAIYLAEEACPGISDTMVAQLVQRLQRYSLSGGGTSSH
TNK2 (human), sequence (Q07912 whole entry, looked up): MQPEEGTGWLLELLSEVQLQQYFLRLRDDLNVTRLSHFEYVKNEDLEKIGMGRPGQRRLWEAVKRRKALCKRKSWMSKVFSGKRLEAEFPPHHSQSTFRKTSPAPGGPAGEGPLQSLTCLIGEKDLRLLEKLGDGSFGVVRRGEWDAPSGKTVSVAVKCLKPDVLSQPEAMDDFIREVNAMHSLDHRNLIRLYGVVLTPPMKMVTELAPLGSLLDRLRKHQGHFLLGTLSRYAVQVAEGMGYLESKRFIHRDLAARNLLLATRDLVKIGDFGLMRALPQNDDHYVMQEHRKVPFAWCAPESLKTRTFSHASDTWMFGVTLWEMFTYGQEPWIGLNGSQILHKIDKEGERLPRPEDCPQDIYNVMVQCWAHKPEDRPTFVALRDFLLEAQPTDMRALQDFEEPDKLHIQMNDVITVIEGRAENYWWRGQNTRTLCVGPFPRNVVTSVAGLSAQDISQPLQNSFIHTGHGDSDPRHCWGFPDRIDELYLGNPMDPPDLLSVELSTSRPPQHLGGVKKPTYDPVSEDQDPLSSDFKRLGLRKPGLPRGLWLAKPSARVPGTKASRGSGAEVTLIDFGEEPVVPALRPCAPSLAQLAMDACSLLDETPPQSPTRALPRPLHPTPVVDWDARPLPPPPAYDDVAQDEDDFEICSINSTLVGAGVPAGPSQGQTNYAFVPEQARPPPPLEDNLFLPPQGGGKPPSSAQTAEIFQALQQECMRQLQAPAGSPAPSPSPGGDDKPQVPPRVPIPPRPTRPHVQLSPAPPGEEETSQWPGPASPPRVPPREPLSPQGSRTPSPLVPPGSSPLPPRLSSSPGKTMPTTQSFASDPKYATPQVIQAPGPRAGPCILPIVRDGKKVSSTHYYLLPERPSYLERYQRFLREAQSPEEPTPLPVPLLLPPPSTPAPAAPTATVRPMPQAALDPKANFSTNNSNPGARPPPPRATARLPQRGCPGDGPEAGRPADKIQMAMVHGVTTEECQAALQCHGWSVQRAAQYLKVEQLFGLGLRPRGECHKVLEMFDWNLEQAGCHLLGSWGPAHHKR
FGFR2 (human), sequence (P21802 whole entry, looked up): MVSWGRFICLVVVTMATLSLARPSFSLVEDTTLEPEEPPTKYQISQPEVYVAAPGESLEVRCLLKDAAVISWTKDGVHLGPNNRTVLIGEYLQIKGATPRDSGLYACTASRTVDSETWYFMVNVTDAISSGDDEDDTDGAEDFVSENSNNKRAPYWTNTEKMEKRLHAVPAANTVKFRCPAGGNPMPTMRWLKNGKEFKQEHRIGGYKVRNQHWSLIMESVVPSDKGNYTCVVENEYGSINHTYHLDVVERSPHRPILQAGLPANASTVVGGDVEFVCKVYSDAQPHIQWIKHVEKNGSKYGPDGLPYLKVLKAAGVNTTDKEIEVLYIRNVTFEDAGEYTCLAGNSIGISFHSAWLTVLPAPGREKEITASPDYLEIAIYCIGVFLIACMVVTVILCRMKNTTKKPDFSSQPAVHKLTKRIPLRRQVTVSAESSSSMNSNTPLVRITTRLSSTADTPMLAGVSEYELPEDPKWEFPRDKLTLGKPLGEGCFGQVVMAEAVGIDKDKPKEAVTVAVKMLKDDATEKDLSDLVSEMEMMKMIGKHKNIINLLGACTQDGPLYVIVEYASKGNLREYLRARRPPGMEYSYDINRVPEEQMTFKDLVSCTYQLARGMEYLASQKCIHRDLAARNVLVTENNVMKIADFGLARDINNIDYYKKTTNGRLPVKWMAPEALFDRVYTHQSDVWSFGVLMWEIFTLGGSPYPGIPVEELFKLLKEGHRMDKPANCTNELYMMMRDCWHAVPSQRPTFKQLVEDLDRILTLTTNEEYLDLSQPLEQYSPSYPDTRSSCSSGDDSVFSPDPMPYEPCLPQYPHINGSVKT
EPHA2 (human), sequence (P29317 whole entry, looked up): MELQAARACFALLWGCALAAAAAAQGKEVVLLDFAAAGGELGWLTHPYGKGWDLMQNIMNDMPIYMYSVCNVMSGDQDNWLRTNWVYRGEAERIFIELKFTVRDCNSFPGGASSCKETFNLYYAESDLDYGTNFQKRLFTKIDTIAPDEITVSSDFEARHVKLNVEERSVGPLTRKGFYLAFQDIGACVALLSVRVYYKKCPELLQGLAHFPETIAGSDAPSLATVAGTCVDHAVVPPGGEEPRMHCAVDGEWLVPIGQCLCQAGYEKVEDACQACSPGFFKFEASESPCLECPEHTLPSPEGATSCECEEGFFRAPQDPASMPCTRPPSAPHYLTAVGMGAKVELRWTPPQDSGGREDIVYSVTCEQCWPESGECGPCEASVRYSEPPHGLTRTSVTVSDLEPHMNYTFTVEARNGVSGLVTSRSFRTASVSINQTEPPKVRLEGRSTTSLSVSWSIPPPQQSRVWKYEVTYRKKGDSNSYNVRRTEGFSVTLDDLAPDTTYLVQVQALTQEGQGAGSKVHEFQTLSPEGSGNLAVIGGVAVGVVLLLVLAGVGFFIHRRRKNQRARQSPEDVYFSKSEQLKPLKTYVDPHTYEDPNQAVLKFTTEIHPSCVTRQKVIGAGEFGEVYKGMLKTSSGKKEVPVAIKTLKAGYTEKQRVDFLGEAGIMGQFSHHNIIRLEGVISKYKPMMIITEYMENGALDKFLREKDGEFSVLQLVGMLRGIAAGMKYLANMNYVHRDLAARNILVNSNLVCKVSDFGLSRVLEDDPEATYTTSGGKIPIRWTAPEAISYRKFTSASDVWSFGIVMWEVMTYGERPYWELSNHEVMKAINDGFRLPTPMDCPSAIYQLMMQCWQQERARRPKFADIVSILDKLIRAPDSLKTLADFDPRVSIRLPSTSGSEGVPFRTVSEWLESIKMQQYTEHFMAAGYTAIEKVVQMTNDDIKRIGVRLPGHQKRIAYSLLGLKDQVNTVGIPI
STK25 (human), sequence (O00506 whole entry, looked up): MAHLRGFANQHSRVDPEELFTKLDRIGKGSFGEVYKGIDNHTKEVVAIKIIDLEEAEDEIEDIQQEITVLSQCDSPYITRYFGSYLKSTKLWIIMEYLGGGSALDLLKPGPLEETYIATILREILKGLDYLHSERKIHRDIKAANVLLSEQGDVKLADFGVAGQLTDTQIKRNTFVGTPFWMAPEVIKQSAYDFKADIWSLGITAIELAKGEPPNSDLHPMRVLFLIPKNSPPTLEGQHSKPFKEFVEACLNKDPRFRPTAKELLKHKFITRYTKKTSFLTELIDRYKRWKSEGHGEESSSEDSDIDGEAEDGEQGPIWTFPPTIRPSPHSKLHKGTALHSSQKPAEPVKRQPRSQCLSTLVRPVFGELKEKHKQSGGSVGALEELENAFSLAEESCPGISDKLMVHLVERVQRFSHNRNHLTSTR

## Fc1ccc(-c2nc3n(c2-c2ccncc2)CCS3)cc1
ABL2 (human)
  residual activity: 91%
ACVR1B (human)
  residual activity: 115%
BLK (human)
  residual activity: 97.8%
CAMK2B (human)
  residual activity: 90%
CAMKK1 (human)
  residual activity: 113%
CAMKK2 (human)
  residual activity: 99.9%
CDK1 CCNA2 (human)
  residual activity: 94.7%
CDK4 CCND1 (human)
  residual activity: 114%
CDK5 CDK5R1 p35 (human)
  residual activity: 97.8%
CSF1R (human)
  residual activity: 103%
DYRK1B (human)
  residual activity: 104%
DYRK3 (human)
  residual activity: 103%
EPHA2 (human)
  residual activity: 107%
EPHA5 (human)
  residual activity: 89.7%
FGFR2 (human)
  residual activity: 106%
[1]
  residual activity: 112%
GRK4 (human)
  residual activity: 95.7%
HIPK4 (human)
  residual activity: 89.7%
[2]
  residual activity: 106%
KDR (human)
  residual activity: 95.7%
MAP3K14 (human)
  residual activity: 103%
MAP4K5 (human)
  residual activity: 98.7%
MELK (human)
  residual activity: 102%
MET (human)
  residual activity: 92.7%
NUAK2 (human)
  residual activity: 135%
PDGFRA (human)
  residual activity: 98%
PRKCB1 (human)
  residual activity: 94.2%
PRKCD (human)
  residual activity: 99.1%
PRKCZ (human)
  residual activity: 90.6%
PRKD3 (human)
  residual activity: 88.2%
ROCK1 (human)
  residual activity: 103%
RPS6KA1 KD1 KD2 (human)
  residual activity: 100%
SGK2 (human)
  residual activity: 105%
SIK2 (human)
  residual activity: 108%
SLK (human)
  residual activity: 110%
SRMS (human)
  residual activity: 102%
STK24 (human)
  residual activity: 94.2%
STK25 (human)
  residual activity: 104%
STK3 (human)
  residual activity: 111%
TNK2 (human)
  residual activity: 98%
[3]
  residual activity: 107%
WNK2 (human)
  residual activity: 104%

## N#Cc1c[nH]c2c[nH]/c(=N\Cc3cccnc3)cc2/c1=N\c1ccc(F)c(Cl)c1
ABL2 (human)
  residual activity: 87.4%
ACVR1B (human)
  residual activity: 99%
BLK (human)
  residual activity: 99.9%
CAMK2B (human)
  residual activity: 97.4%
CAMKK1 (human)
  residual activity: 105%
CAMKK2 (human)
  residual activity: 90.1%
CDK1 CCNA2 (human)
  residual activity: 88%
CDK4 CCND1 (human)
  residual activity: 97.6%
CDK5 CDK5R1 p35 (human)
  residual activity: 80.4%
CSF1R (human)
  residual activity: 96.3%
DYRK1B (human)
  residual activity: 65.2%
DYRK3 (human)
  residual activity: 96.3%
EPHA2 (human)
  residual activity: 102%
EPHA5 (human)
  residual activity: 90.6%
FGFR2 (human)
  residual activity: 103%
[1]
  residual activity: 96.2%
GRK4 (human)
  residual activity: 98.8%
HIPK4 (human)
  residual activity: 93.1%
[2]
  residual activity: 93.6%
KDR (human)
  residual activity: 96.3%
MAP3K14 (human)
  residual activity: 118%
MAP4K5 (human)
  residual activity: 61.7%
MELK (human)
  residual activity: 88%
MET (human)
  residual activity: 94.9%
NUAK2 (human)
  residual activity: 135%
PDGFRA (human)
  residual activity: 94.3%
PRKCB1 (human)
  residual activity: 104%
PRKCD (human)
  residual activity: 95.2%
PRKCZ (human)
  residual activity: 93.9%
PRKD3 (human)
  residual activity: 90.4%
ROCK1 (human)
  residual activity: 99.8%
RPS6KA1 KD1 KD2 (human)
  residual activity: 94.6%
SGK2 (human)
  residual activity: 98.5%
SIK2 (human)
  residual activity: 97.6%
SLK (human)
  residual activity: 86.6%
SRMS (human)
  residual activity: 104%
STK24 (human)
  residual activity: 95.6%
STK25 (human)
  residual activity: 95.6%
STK3 (human)
  residual activity: 94.3%
TNK2 (human)
  residual activity: 89.9%
[3]
  residual activity: 103%
WNK2 (human)
  residual activity: 91.1%

## Cc1cccc(-c2nc(C(C)(C)C)[nH]c2-c2ccc3c(c2)OCO3)n1
ABL2 (human)
  residual activity: 95.7%
ACVR1B (human)
  residual activity: 31%
BLK (human)
  residual activity: 98.5%
CAMK2B (human)
  residual activity: 96.2%
CAMKK1 (human)
  residual activity: 103%
CAMKK2 (human)
  residual activity: 96%
CDK1 CCNA2 (human)
  residual activity: 96.7%
CDK4 CCND1 (human)
  residual activity: 105%
CDK5 CDK5R1 p35 (human)
  residual activity: 98.5%
CSF1R (human)
  residual activity: 102%
DYRK1B (human)
  residual activity: 99.6%
DYRK3 (human)
  residual activity: 102%
EPHA2 (human)
  residual activity: 99.2%
EPHA5 (human)
  residual activity: 95.6%
FGFR2 (human)
  residual activity: 105%
[1]
  residual activity: 99.8%
GRK4 (human)
  residual activity: 101%
HIPK4 (human)
  residual activity: 107%
[2]
  residual activity: 96.1%
KDR (human)
  residual activity: 94.7%
MAP3K14 (human)
  residual activity: 109%
MAP4K5 (human)
  residual activity: 99.2%
MELK (human)
  residual activity: 92.7%
MET (human)
  residual activity: 82.7%
NUAK2 (human)
  residual activity: 138%
PDGFRA (human)
  residual activity: 94.1%
PRKCB1 (human)
  residual activity: 82.5%
PRKCD (human)
  residual activity: 104%
PRKCZ (human)
  residual activity: 87.9%
PRKD3 (human)
  residual activity: 89.3%
ROCK1 (human)
  residual activity: 101%
RPS6KA1 KD1 KD2 (human)
  residual activity: 96.4%
SGK2 (human)
  residual activity: 100%
SIK2 (human)
  residual activity: 91.4%
SLK (human)
  residual activity: 108%
SRMS (human)
  residual activity: 102%
STK24 (human)
  residual activity: 100%
STK25 (human)
  residual activity: 104%
STK3 (human)
  residual activity: 97.7%
TNK2 (human)
  residual activity: 99.3%
[3]
  residual activity: 102%
WNK2 (human)
  residual activity: 105%
